Experimental findings from patent publication US11161830B2, “4-pyridone compound or salt thereof, and pharmaceutical composition and formulation including same” (priority 2017, dated 2021) are described below.

Experiment [1] has as its system HBV. Briefly: Test Example 1-1: anti-HBV assay in HepG2.2.15 cells (test solution 200 μL/well). Format: cell-based, hepatitis B virus. The following applies: culture supernatant. Here is the method: Using HepG2.2.15 cells (Proc. Natl. Acad. Sci. USA, 84, 1005-1009, 1987) which have an HBV genome introduced into a hepatoblastoma cell line, HepG2, and persistently produce a virus, the anti-HBV activity of the representative compounds was evaluated in the following procedure.
(§1) The following was used as a medium:
DMEM/F-12, GlutaMAX (manufactured by Invitrogen)+5 μg/mL insulin (manufactured by Wako)+1% penicillin/streptomycin (manufactured by Sigma)+10 mmol/L HEPES (manufactured by Sigma)+50 μmol/L hydrocortisone (manufactured by Sigma)+10% FBS
A mixture of a test compound with dimethyl sulfoxide (DMSO) was further added to the medium to obtain a final concentration of DMSO of 0.25% (v/v), and thus, test solutions containing the test compound at various concentrations were prepared. In addition, a test solution obtained by adding DMSO alone to the medium to obtain a final concentration of 0.25% (v/v) was prepared as a control without addition of a drug.
(1) The HepG2.2.15 cells were suspended in the medium to prepare a. HepG2.2.15 cell suspension at 4×10^5 cells/mL. The suspension was seeded in a 96-well microtiter plate (100 μL/well) and the plate was incubated in a 5% CO2 incubator at 37° C. for 2 days.
(2) The culture supernatant was removed and the cells were washed twice with PBS (−) (100 μL/well).
(3) The test solution (200 μL/well) was added to the plate of (2) and the plate was incubated in a 5% CO2 incubator at 37° C. for 4 days.
(4) The culture supernatant was removed, the test solution (200 μL/well) was added again to the plate, and the plate was incubated in a 5% CO2 incubator at 37° C. for 3 days.
(5) The culture supernatant was collected and treated with a mixture of Buffer AL (manufactured by QIAGEN) and Proteinase K (manufactured by Invitrogen). The amount of DNA of HBV (HBV-DNA) in the obtained solution was absolutely quantified by a real-time PCR method. In addition, HBsAg (hepatitis B surface antigen) in the culture supernatant was absolutely quantified by chemiluminescent enzyme immunoassay using Lumipulse (registered trademark) HBsAg-HQ (manufactured by Fujirebio Inc.). The relative viral load (%) of a well with the compound added to a well without the compound added was calculated. An IC50 of the compound was calculated using a FORECAST function (linear regression method) of Microsoft Office Excel 2007 by plotting the logarithm of the concentration against the relative viral load as a real number.
The IC50 of HBV-DNA was defined as a concentration (or a logarithm dilution of the culture supernatant) of the compound, in which the amount of HBV-DNA is reduced by 50% as compared a control without the compound added.
In addition, the IC50 of HBsAg was defined as a concentration (or a logarithm dilution of the culture supernatant) of the compound, in which the amount of HBsAg is reduced by 50% as compared a control without the compound added.

Experiment [2] concerns HBV (genotype AeUS). Briefly: Test Example 2-1: anti-HBV assay in PXB-cells (fresh human hepatocytes). Format: cell-based, hepatitis B virus. The following applies: Hepatitis B virus, Hepatocyte, PXB-cells infected with HBV genotype AeUS, culture supernatant on day 32 post infection. Here is the method: Using fresh human hepatocytes (PXB-cells, manufactured by PhenixBio Co., Ltd.) collected from a PXB mouse (a chimeric mouse with human hepatocytes), the anti-HBV activity of the representative compounds was evaluated in the following procedure.
as §1
DMEM (manufactured by Sigma)+0.25 μg/mL insulin (manufactured by Wako)+1% penicillin/streptomycin. (manufactured by Sigma)+20 mmol/L HEPES (manufactured by Sigma)+15 μg/mL L-proline (manufactured by Sigma)+50 nmol/L dexamethasone (manufactured by Sigma)+5 ng/mL EGF (manufactured by Peprotech)+0.1 mmol/L ascorbic acid 2-phosphate (manufactured by Wako)+10% FBS+2% DMSO
Each of the test compounds) was further added to the medium to prepare a test solution containing each of the test compounds at various concentrations.
(1) PXB-cells seeded at a seeding density of 2.1×10^5 cells/cm^2 in a 96-well microliter plate were incubated in a 5% CO2 incubator at 37° C. until a day on which the cells were infected.
(2) HBV (genotype AeUS) derived from a PXB mouse serum was suspended in the medium containing 4% PEG-8000, and added to the plate of (1) at about 10 copies/cell such that the PXB cells were infected (100 μL/well), and the plate was incubated in a 5% CO2 incubator at 37° C. for 1 day.
(3) The culture supernatant on day 1 post infection was removed and the cells were washed three times with DMEM containing 10% FBS and 1% penicillin/streptomycin. Then, the medium was added to the plate (100 μL/well) and the plate was incubated in a 5% CO2 incubator at 37° C. for 1 day.
(4) The culture supernatant on day 2 post infection was removed and the cells were washed three times with DMEM containing 10% FBS and 1% penicillin/streptomycin. Then, the medium was added to the plate (100 μL/well) and the plate was incubated in a 5% CO2 incubator at 37° C. for 5 days.
(5) The culture supernatant on day 7 post infection was removed, the medium was added to the plate (100 μL/well), and the plate was incubated in a 5% CO2 incubator at 37° C. for 5 days.
(6) The culture supernatant on day 12 post infection was removed, the medium was added to the plate (100 μL/well), and the plate was incubated in a 5% CO2 incubator at 37° C. for 5 days.
(7) The culture supernatant on day 17 post infection was removed, the test solution was added to the plate (100 μL/well), and the plate was incubated in a 5% CO2 incubator at 37° C. for 5 days. As a control without the compound added, the medium was added to the plate (100 μL/well) and the plate was incubated in a 5% CO2 incubator at 37° C. for 5 days.
(8) The culture supernatant on day 22 post infection was removed, the test solution was added to the plate (100 μL/well), and the plate was incubated in a 5% CO2 incubator at 37° C. for 5 days. As a control without the compound added, the medium was added to the plate (100 μL/well) and the plate was incubated in a 5% CO2 incubator at 37° C. for 5 days.
(9) The culture supernatant on day 27 post infection was removed, the test solution was added to the plate (100 μL/well), and the plate was incubated in a 5% CO2 incubator at 37° C. for 5 days. As a control without the compound added, the medium was added to the plate (100 μL/well) and the plate was incubated in a 5% CO2 incubator at 37° C. for 5 days.
(10) The culture supernatant on day 32 post infection was collected.
(11) The collected culture supernatant on day 32 post infection was purified with a QIAamp (registered trademark) DNA Blood Mini Kit (manufactured by QIAGEN). The amount of HBV-DNA in the obtained solution was absolutely quantified by a real-time PCR method. In addition, the amount of HBsAg in the culture supernatant was absolutely quantified by chemiluminescent enzyme immunoassay using Lumipulse (registered trademark) HBsAg-HQ (manufactured by Fujirebio Inc.). A relative viral load (%) with respect to a control without the compound added was each calculated. […]

Setting [3] is: Hepatitis B virus, read-out: IC50 HBV-DNA.
[4] abbreviates: Hepatitis B virus, read-out: IC50 HBsAg.

Like-named read-outs stand apart in the source and are kept apart here.

`Cc1nc2ccc(-n3cc(C(=O)O)c(=O)cc3-c3ccc(N(C)C)cc3)cc2s1` [Example 1, 6-(4-(dimethylamino)phenyl)-1-(2-methylbenzo[d]thiazol-6-yl)-4-oxo-1,4-dihydropyridine-3-carboxylic acid]: the IC50 in experiment [1] (setting [3]) and in experiment [1] (setting [4]) was 120 nM in each case.

As to `COc1nc2ccc(-n3cc(C(=O)O)c(=O)cc3-c3ccc(N4CCCC4)cc3)cc2s1` [Example 3-5, 1-(2-methoxybenzo[d]thiazol-6-yl)-4-oxo-6-(4-(pyrrolidin-1-yl)phenyl)-1,4-dihydropyridine-3-carboxylic acid], the IC50 (as a rule, the concentration that inhibits the measured activity by half) in experiment [1] (setting [3]) was 4 nM; in experiment [1] (setting [4]) it was 8 nM.

Consider `COCCN(CCOC)c1nc2ccc(-n3cc(C(=O)O)c(=O)cc3-c3ccc(N4CCCC4)cc3)cc2s1` [Example 3-6, 1-(2-(bis(2-methoxyethyl)amino)benzo[d]thiazol-6-yl)-4-oxo-6-(4-(pyrrolidin-1-yl)phenyl)-1,4-dihydropyridine-3-carboxylic acid], for which the IC50 in experiment [1] (setting [3]) was 3.9 nM; in experiment [1] (setting [4]) it was 3 nM.

Consider `CCN1CCN(c2nc3ccc(-n4cc(C(=O)O)c(=O)cc4-c4ccc(N5CCCC5)cc4)cc3s2)CC1` [Example 3-9, 1-(2-(4-ethylpiperazin-1-yl)benzo[d]thiazol-6-yl)-4-oxo-6-(4-(pyrrolidin-1-yl)phenyl)-1,4-dihydropyridine-3-carboxylic acid], for which the IC50 was 3.5 nM in experiment [1] (setting [3]) and 6 nM in experiment [1] (setting [4]).

With `O=C(O)c1cn(-c2ccc3nc(NCc4ccccn4)sc3c2)c(-c2ccc(N3CCCC3)cc2)cc1=O` [Example 3-12, 4-oxo-1-(2-((pyridin-2-ylmethyl)amino)benzo[d]thiazol-6-yl)-6-(4-(pyrrolidin-1-yl)phenyl)-1,4-dihydropyridine-3-carboxylic acid], the IC50 was determined as 2.9 nM in experiment [1] (setting [3]) and 2.4 nM in experiment [1] (setting [4]).

In the case of `COCCN1CCN(c2nc3ccc(-n4cc(C(=O)O)c(=O)cc4-c4ccc(N5CCCC5)cc4)cc3s2)CC1` [Example 3-14, 1-(2-(4-(2-methoxyethyl)piperazin-1-yl)benzo[d]thiazol-6-yl)-4-oxo-6-(4-(pyrrolidin-1-yl)phenyl)-1,4-dihydropyridine-3-carboxylic acid], the IC50 in experiment [2] (read-out: IC50 HBV-DNA) stood at 24 nM; in experiment [2] (read-out: IC50 HBsAg) it was 89 nM.

With `COc1cc(-c2cc(=O)c(C(=O)O)cn2-c2ccc3nc(C)sc3c2)ccc1N1CCCC1` [Example 4-1, 6-(3-methoxy-4-(pyrrolidin-1-yl)phenyl-1)-(2-methylbenzo[d]thiazol-6-yl)-4-oxo-1,4-dihydropyridine-3-carboxylic acid], the IC50 in experiment [1] (read-out: IC50 HBV-DNA) and in experiment [1] (read-out: IC50 HBsAg) was 18 nM in each case.

Consider `COc1cc(-c2cc(=O)c(C(=O)O)cn2-c2ccc3nc(N4CCOCC4)sc3c2)ccc1N1CCCC1` [Example 4-2, 6-(3-methoxy-4-(pyrrolidin-1-yl)phenyl)-1-(2-morpholinobenzo[d]thiazol-6-yl)-4-oxo-1,4-dihydropyridine-3-carboxylic acid], for which the figures for the IC50 in experiment [1] (setting [3]) and in experiment [1] (setting [4]) were 10.9 nM and 5.3 nM, respectively.

`O=C(O)c1cn(-c2ccc3nc(N4CCOCC4)sc3c2)c(-c2ccc(N3CCCC3)c(Br)c2)cc1=O` [Example 5-2, 6-(3-bromo-4-(pyrrolidin-1-yl)phenyl)-1-(2-morpholinobenzo[d]thiazol-6-yl)-4-oxo-1,4-dihydropyridine-3-carboxylic acid]: the IC50 in experiment [1] (setting [3]) turned out to be 1.2 nM; in experiment [1] (setting [4]), 1.6 nM.

Regarding `COCCN(CCOC)c1nc2ccc(-n3cc(C(=O)O)c(=O)cc3-c3ccc(N4CCCC4)c(Br)c3)cc2s1` [Example 5-3, 1-(2-(bis(2-methoxyethyl)amino)benzo[d]thiazol-6-yl)-6-(3-bromo-4-(pyrrolidin-1-yl)phenyl)-4-oxo-1,4-dihydropyridine-3-carboxylic acid], the IC50 in experiment [2] (read-out: IC50 HBV-DNA) came out at 25 nM; in experiment [2] (read-out: IC50 HBsAg), 52 nM.

For the molecule `O=C(O)c1cn(-c2ccc3nc(N4CCOCC4)sc3c2)c(-c2ccc(N3CCCC3)c(Cl)c2)cc1=O` [Example 6-1, 6-(3-chloro-4-(pyrrolidin-1-yl)phenyl)-1-(2-morpholinebenzo[d]thiazol-6-yl)-4-oxo-1,4-dihydropyridine-3-carboxylic acid], the IC50 in experiment [1] (read-out: IC50 HBV-DNA) was 10 nM; in experiment [1] (read-out: IC50 HBsAg), 3.8 nM.

`Cc1nc2ccc(-n3cc(C(=O)O)c(=O)cc3-c3ccc(N4CC[C@@H](OCc5ccc(F)cc5)C4)cc3)cc2s1` [Example 8, (R)-6-(4-(3-((4-Fluorobenzyl)oxy)pyrrolidin-1-yl)phenyl)-1-(2-methylbenzo[d]thiazol-6-yl)-4-oxo-1,4-dihydropyridine-3-carboxylic acid]: the values for the concentration for half-maximal inhibition (IC50) in experiment [1] (setting [3]) and in experiment [1] (setting [4]) were 20 nM and 19 nM, respectively.

As to `O=C(O)c1cn(-c2ccc3ncsc3c2)c(-c2ccc(-c3ccc(F)cc3)s2)cc1=O` [Example 14, 1-(Benzo[d]thiazol-6-yl)-6-(5-(4-fluorophenyl)thiophen-2-yl)-4-oxo-1,4-dihydropyridine-3-carboxylic acid], the IC50 came to 100 nM in experiment [1] (setting [3]) and 91 nM in experiment [1] (setting [4]).
